Tests used:
[1] = tested on: arctic fox with severe encephalitis (Ljungan virus); test: Encephalitis in arctic fox treated with Pleconaril; format: in vivo; conditions: one arctic fox, 50 mg/kg twice daily for 7 days
Source text: The arctic fox in Sweden is a species close to being extinct. The reason for this is unknown. Nordens Ark has a breeding program for arctic foxes with the aim to save the species. However, several animals in captivity have developed encephalitis and died. Nordens Ark has lost almost all their animals. The encephalitis is a slow progressing disease often starting with stereotypic behaviour followed by visual problem, loss of smell and loss of muscle coordination. The condition is slowly progressing over several months leading to the deaths of the animal. No spontaneous recovery has been seen in any of the arctic foxes observed.
Ljungan virus was isolated from the brain of one arctic fox suffering from encephalitis. Ljungan virus RNA was also detected by PCR in the brain and the heart of the same individual. Ljungan virus could also be detected in the brain and the heart by immunohistochemistry.
One arctic fox with severe encephalitis was treated with 50 mg/kg of Pleconaril twice daily for 7 days.

Bank voles with diabetes = test: Diabetic bank voles, oral Pleconaril, glucose tolerance test; format: in vivo; conditions: 100 mg/kg per day for seven days orally in drinking water; GTT 60 min, day before treatment vs 15 days later; none of six control animals
Method: Bank voles with diabetes were randomised into 2 groups one treated with Pleconaril and one not receiving any treatment. Treated animals were given 100 mg Pleconaril per kg body weight per day seven days. The drug was administered orally in the drinking water. All animals were subjected to a glucose tolerance test the day before the treatment and again 15 days later. Glucose tolerance test was performed by administrating 2 grams of glucose per kg BW intraperitoneally. The blood glucose levels were measured after 60 min.

[2] = tested on: picornavirus known to be sensitive to Pleconaril; test: Tissue culture with Pleconaril, picornavirus known to be sensitive; format: cell-based; conditions: 10 000 000 TCID, 1,6 micrograms Pleconaril per ml
Source text: (§1) Ljungan virus was first tested in tissue culture of Vero cells in combination with Pleconaril. 1,6 micrograms of active substance per ml of the tissue culture medium were used. This dose was used in all experiment below where it says “with Pleconaril”.
(§2) For a control picornavirus known not to be sensitive to Pleconaril no inhibition of any amount of the virus can be detected. […] This means that Ljungan virus is semi-sensitive” or “semi-resistant” to Pleconaril.

[3] = tested on: control picornavirus known not to be sensitive to Pleconaril; test: Tissue culture with Pleconaril, control picornavirus known not to be sensitive; format: cell-based; conditions: any amount of the virus, 1,6 micrograms Pleconaril per ml
Source text: as §1, §2

Ljungan virus = Ljungan virus in tissue culture of Vero cells with Pleconaril (CPE); format: cell-based
Source text: as §1
10 000 000 tissue culture infectious doses (TCID) of Ljungan virus treated with Pleconaril give full cytopathogenic effect (CPE) in 4 days while the control culture with no Pleconaril show full CPE in 3 days.
as §2

Ljungan virus (LV145 SL) = test: Antiviral therapy of diabetes in male offspring of Ljungan virus infected laboratory mice; format: in vivo, CD1 mice; conditions: for frequency of animals with diabetes, as measured by GTT: vs infected untreated mice
Method: Glucose tolerance test was performed to determine the diagnosis of diabetes. In this test 2 g glucose per kg body weight was administrated intraperitoneally (as 100 mg glucose/ml solution). Blood glucose was measured (Medisence Precision PCx Abbott Laboratories) just before the glucose injection and at 60 and 120 minutes post administration. Diabetes was defined as a blood glucose level above 200 mg/dL in a glucose tolerance test at 120 min.
Abdominal fat in male mice was measured by dissecting out the bilateral scrotal fat cushion. The total weight of both fat cushions was used.
The serum insulin level was measured using a rat insulin high range ELISA kit (Mercodia AB, Uppsala, Sweden) according to the instructions of the manufacturer. Islets prepared from the pancreas were assayed for insulin release and glucose oxidation assay described elsewhere (Blixt, M., Niklasson, B. & Sandler, S. Characterization of β-cell function of pancreatic islets isolated from bank voles developing glucose intolerance/diabetes: an animal model showing features of both type 1 and type 2 diabetes mellitus. Manuscript submitted).
Pregnant outbred CD1 mice (CD-1 (ICR) Br Charles River laboratories, Germany) were infected intraperitoneally with 1000 ID50 units of LV145 SL two days after conception. Control animals were given an injection with the same volume with normal saline at the same time. All female mice were kept in individual cages and followed for the development of gestational diabetes, pregnancy outcome and development of diabetes in the offspring. In half of the infected pregnant mice, mild stress was induced by adding glucose (100 g/liter) to drinking water, performing weekly weights and glucose tolerance testing during the last week of pregnancy. The uninfected control group of pregnant mice was also subjected to stress. Antiviral therapy using LV-specific murine antisera or the oral antiviral compound Pleconaril (200 mg per kg body weight) administrated once a day for 4 consecutive days or a combination of antiserum and Pleconaril was initiated at 5 weeks of age (11-13). At 15 weeks animals were tested by a glucose tolerance test (GTT). Also, serum insulin level and abdominal fat were measured and the histopathology of the pancreas was examined.
Antiviral therapy using LV-specific murine antisera (group IV) or the oral antiviral compound Pleconaril (200 mg per kg body weight) administrated once a day for 4 consecutive days (group III) or a combination of antiserum and Pleconaril (group V) was initiated at 5 weeks of age.
Mice were treated with a combination of Pleconaril and antisera and interferon α. Interferon a was given as 2×10^7 IU/kg/day during three consecutive days during the same week Pleconaril and specific immunoglobulin was administrated. […] In addition, the combination therapy (Pleconaril, antisera, and interferon) normalize the amount of abdominal fat and the level of serum insulin, reducing them to normal levels.

Cc1cc(CCCOc2c(C)cc(-c3noc(C(F)(F)F)n3)cc2C)on1 [Pleconaril, 3-[3,5-dimethyl-4-[[3-(3-methyl-5-isoxazolyl)propyl]oxy]phenyl]-5-(trifluoromethyl)-1,2,4-oxadiazole]
clinical condition after the treatment [1]: improved
course after several months [1]: signs and symptoms of encephalitis came back
animals improved with blood glucose levels decreasing more than 200 mg per dl (Bank voles with diabetes): 2 out of six
inhibition of sensitive picornavirus (CPE) [2]: inhibited (no CPE)
inhibition of control picornavirus [3]: no inhibition
time to full cytopathogenic effect (CPE) (Ljungan virus; 10 000 000 TCID of Ljungan virus, Vero cells, 1,6 micrograms Pleconaril per ml, control culture without Pleconaril full CPE in 3 days): 4 days
inhibition of Ljungan virus (Ljungan virus; 100 TCID of Ljungan virus, Vero cells, 1,6 micrograms Pleconaril per ml): fully inhibited
sensitivity of Ljungan virus to Pleconaril (conclusion) (Ljungan virus; Vero cells, 1,6 micrograms per ml): semi-sensitive
No. with blood glucose > 200 md/dL at 120 min (Ljungan virus (LV145 SL); Table 2, GTT at 15 weeks, therapy started at 5 weeks, number of mice, infected no treatment 8 of 11): 1
No. with blood glucose > 200 md/dL at 120 min (percent) (Ljungan virus (LV145 SL); Table 2, GTT at 15 weeks, infected no treatment 73%): 9%
Blood glucose at 60 min (Ljungan virus (LV145 SL); Table 2, GTT at 15 weeks, infected no treatment 242): 211
Serum insulin (Ljungan virus (LV145 SL); Table 2, at 15 weeks, infected no treatment 5.04): 4.15 µg/L
Abdominal fat in gram (Ljungan virus (LV145 SL); Table 2, male mice at 15 weeks, infected no treatment 2.9): 2.1 gram
No. Hyperglycemic (Ljungan virus (LV145 SL); Table 7, infected mice, number of mice, no treatment 8 of 11): 1
No. Hyperglycemic (percent) (Ljungan virus (LV145 SL); Table 7, infected mice, no treatment 73%): 9%
Abdominal fat (Ljungan virus (LV145 SL); Table 7, infected mice, spread in brackets, no treatment 2.90 (0.84)): 2.20 (1.0) g
Serum insulin (Ljungan virus (LV145 SL); Table 7, infected mice, spread in brackets, no treatment 5.04 (2.30)): 4.15 (5.03) μg/L
Blood glucose @ 60 minutes (Ljungan virus (LV145 SL); Table 7, infected mice, spread in brackets, no treatment 242 (75)): 211 (79) mg/dL
frequency of animals with diabetes, as measured by GTT (Ljungan virus (LV145 SL)): reduced the frequency of animals with diabetes
frequency of animals with diabetes, as measured by GTT (Ljungan virus (LV145 SL); listed as Pleconaril alone): reduced the frequency of diabetes

Source: patent US7442380B2, “Treatment of diseases caused by viral infection” (Apodemus AB, priority 2003, dated 2008)
